{
  "source": "paper PMC7462607",
  "about": "(eLife, 2020)",
  "key": {"[1]": {"test_system": "ARE-luc2P activity (NRF2)", "assay": "ARE-luc2P reporter assay (NRF2 activity)", "format": "cell-based", "conditions": "Homo sapiens; A549 ARE-luc2P reporter cells", "experimental": "A549 cells were transiently transfected with the plasmid pGL4.37 (Promega, Madison, USA) and selected with 500 µg/ml of hygromycin to obtain a stable cell line harboring the ARE-luc2P reporter. TK-luc2P was cloned into the pLVX-IRE-Puro backbone by replacing its CMV promoter and multiple cloning site with HSV-TK promoter fused to luc2P. The resulting pLVX-TK-luc2P-IRES-Puro plasmid was packaged into lentivirus to transduce A549 cells. Stable cell lines were obtained by selection of transduced cells with 2 µg/ml of puromycin.\nA screening library with 65,790 small molecules (Life Chemicals, Niagara-on-the-Lake, Canada) were used in primary screening. The screening procedures were as follows. Seven hundred A549 ARE-luc2P cells in 50 µL of medium were plated per well in 384-well flat clear bottom white polystyrene TC-treated microplates (Corning, Corning, USA) and allowed to attach to plates overnight. […] Twelve hours later, ARE-luc2P activities were measured with Bright-Glo luciferase assay system (Promega, Madison, USA) following vendor instructions. Luminescence was measured on a EnVision multimode plate reader (PerkinElmer, Waltham, USA). Luminescence data on each plate was Z-score normalized using the equation Z=x−μ/σ , where x is the luminescence value of a well, µ is the mean and σ is the standard deviation of all values on one plate. […]"}, "[2]": {"biological_target": "T1, FLAG-Avi-DDB1 and His-CDK12KD G731R/His-CCNKΔC (Homo sapiens, UniProt Q9NYV4, G731R)", "T1 construct": "Human CDK12KD (residues 715–1052); made in house; host or cells: Sf9 or High Five (CDK12KD/CCNKΔC, co-infected with yeast CAK1); 293F with BirA (FLAG-Avi-DDB1)", "T1 sequence (Q9NYV4 715-1052 G731R limits assumed)": "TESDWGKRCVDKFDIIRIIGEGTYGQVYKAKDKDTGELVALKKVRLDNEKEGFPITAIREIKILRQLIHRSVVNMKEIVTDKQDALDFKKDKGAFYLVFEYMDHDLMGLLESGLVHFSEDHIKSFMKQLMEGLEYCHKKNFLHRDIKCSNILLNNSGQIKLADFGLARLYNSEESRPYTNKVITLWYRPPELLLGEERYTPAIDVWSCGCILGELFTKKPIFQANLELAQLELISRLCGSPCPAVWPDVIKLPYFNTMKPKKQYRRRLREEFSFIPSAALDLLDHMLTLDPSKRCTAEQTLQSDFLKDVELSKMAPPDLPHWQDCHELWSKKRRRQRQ", "T1 sequence (O75909 11-267 partner limits assumed)": "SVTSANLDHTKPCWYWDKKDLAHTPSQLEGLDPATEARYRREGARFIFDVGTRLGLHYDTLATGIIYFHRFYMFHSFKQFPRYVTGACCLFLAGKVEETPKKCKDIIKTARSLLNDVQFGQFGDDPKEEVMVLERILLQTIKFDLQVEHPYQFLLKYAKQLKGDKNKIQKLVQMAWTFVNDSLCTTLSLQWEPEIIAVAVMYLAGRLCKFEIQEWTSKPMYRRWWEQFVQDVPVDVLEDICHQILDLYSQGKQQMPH", "assay": "AlphaScreen assay, G731R", "format": "binding", "conditions": "for AlphaScreen: G731R, raw signal", "experimental": "(§1) Biotinylated FLAG-Avi-DDB1 (3 µM) and 6xHis-CDK12KD/6xHis-CCNKΔC (WT or G731E/R mutants) (3 µM) were mixed in an assay buffer (50 mM HEPES, pH7.5, 300 mM NaCl, 0.5 mM TCEP, 0.1% NP-40, 0.1% BSA) and a serial dilution of HQ461.The protein-compound mix was transferred to 384-well plates (Corning, Corning, USA); 15 μL per well. After a 1 hr room temperature incubation, 10 µL of nickel chelate (Ni-NTA) acceptor beads (PerkinElmer, Waltham, USA, Waltham, USA, 6760619C) (1:100 diluted with assay buffer) was added per well. After incubation in the dark for 1 hr at room temperature, 10 μL of streptavidin donor beads (PerkinElmer, Waltham, USA, 6760619C) (1:100 diluted in assay buffer) was added per well. After another 1 hr incubation, AlphaScreen signal was measured on the EnVision multimode plate reader (PerkinElmer, Waltham, USA). For THZ531 competition, FLAG-Avi-DDB1, 6xHis-CDK12KD/6xHis-CCNKΔC mix was preincubated with 5 μM of THZ531 for 30 min on ice followed by the procedures described above."}, "DDB1ΔBPB": {"biological_target": "T2, DDB1ΔBPB (Homo sapiens, UniProt Q16531, DEL400-704)", "T2 construct": "Strep-tag (N); 8xHis (N); made in house; host or cells: Sf9", "T2 sequence (Q16531 with tags, fused parts or gaps DEL400-704)": "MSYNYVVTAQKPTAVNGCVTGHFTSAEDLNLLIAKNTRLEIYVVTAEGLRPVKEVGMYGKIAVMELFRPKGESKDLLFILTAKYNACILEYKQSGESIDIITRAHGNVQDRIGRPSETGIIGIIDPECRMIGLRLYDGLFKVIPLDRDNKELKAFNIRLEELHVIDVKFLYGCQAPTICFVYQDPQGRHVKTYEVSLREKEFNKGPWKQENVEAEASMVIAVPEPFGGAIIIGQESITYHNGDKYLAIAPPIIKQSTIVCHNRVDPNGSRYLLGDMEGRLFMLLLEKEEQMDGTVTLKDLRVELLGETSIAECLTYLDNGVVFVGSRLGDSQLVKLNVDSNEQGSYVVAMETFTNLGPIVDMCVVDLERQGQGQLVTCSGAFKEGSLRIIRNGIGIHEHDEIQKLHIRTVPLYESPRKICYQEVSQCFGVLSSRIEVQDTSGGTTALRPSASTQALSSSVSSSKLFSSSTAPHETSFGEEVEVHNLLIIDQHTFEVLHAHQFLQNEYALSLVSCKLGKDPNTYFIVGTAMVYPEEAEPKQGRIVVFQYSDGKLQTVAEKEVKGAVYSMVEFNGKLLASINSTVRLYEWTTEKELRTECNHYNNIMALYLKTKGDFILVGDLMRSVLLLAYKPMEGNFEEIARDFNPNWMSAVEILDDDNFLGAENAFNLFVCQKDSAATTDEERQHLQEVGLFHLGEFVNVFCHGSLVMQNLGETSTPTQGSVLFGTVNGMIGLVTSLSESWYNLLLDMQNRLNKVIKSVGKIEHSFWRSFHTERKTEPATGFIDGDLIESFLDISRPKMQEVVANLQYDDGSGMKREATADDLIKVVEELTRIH", "assay": "Differential Scanning Fluorimetry (DSF), DDB1ΔBPB", "format": "binding", "conditions": "50 µM HQ461", "experimental": "(§2) CDK12KD/CCNKΔC (WT or G731E/R) and DDB1ΔBPB were diluted to 5 μM with DSF assay buffer (50 mM HEPES pH 7.5, 300 mM NaCl, 0.5 mM TCEP). 50 µM HQ461 or 10 µM HBx was added to diluted proteins (final DMSO concentration 0.25%). Twenty µL of protein-compound mix was aliquoted per qPCR tube (Labtidebiotech, Shanghai, China, P01-0803E) followed by the addition of 5 µL of 1:400 diluted SYPRO Orange (Sigma-Aldrich, MO, USA, S5692). After incubation on ice for 20 min, fluorescence measurements were performed using a Bio-Rad CFX96 Realtime PCR instrument. During the DSF experiment, the temperature was increased from 10°C to 95°C at an increment of 0.5 °C with equilibration time of 10 s at each temperature prior to measurement. Tm was defined as the temperature corresponding to the maximum value of the first derivative of fluorescence transition."}, "[3]": {"biological_target": "T3, FLAG-Avi-DDB1 and His-CDK12KD G731E/His-CCNKΔC (Homo sapiens, UniProt Q9NYV4, G731E)", "T3 construct": "Human CDK12KD (residues 715–1052); made in house; host or cells: Sf9 or High Five (CDK12KD/CCNKΔC, co-infected with yeast CAK1); 293F with BirA (FLAG-Avi-DDB1)", "T3 sequence (Q9NYV4 715-1052 G731E limits assumed)": "as the sequence (Q9NYV4 715-1052 G731R limits assumed) above, with R17E counted along it", "T3 sequence (O75909 11-267 partner limits assumed)": "as the sequence (O75909 11-267 partner limits assumed) above", "assay": "AlphaScreen assay, G731E", "format": "binding", "conditions": "for AlphaScreen: G731E, raw signal", "experimental": "as §1"}, "CDK12KD/CCNKΔC": {"biological_target": "T4, CDK12KD/CCNKΔC (Homo sapiens, UniProt Q9NYV4)", "T4 construct": "Human CDK12KD (residues 715–1052); 6xHis (PreScission site) (N, cleaved yes); made in house; host or cells: Sf9 or High Five, co-infected with yeast CAK1", "T4 sequence (Q9NYV4 715-1052, stated change not applied)": "as the sequence (Q9NYV4 715-1052 G731R limits assumed) above, with R17G counted along it", "T4 sequence (O75909 11-267 partner limits assumed)": "as the sequence (O75909 11-267 partner limits assumed) above", "assay": "Differential Scanning Fluorimetry (DSF), CDK12KD/CCNKΔC", "format": "binding", "conditions": "50 µM HQ461, Sypro Orange; read-out: increase in melting temperature (Tm) of CDK12KD/CCNKΔC", "experimental": "as §2"}, "[4]": {"biological_target": "T5, FLAG-Avi-DDB1 and His-CDK12KD/His-CCNKΔC (WT) (Homo sapiens, UniProt Q9NYV4)", "T5 construct": "Human CDK12KD (residues 715–1052); made in house; host or cells: Sf9 or High Five (CDK12KD/CCNKΔC, co-infected with yeast CAK1); 293F with BirA (FLAG-Avi-DDB1)", "T5 sequence (Q9NYV4 715-1052 limits assumed, stated change not applied)": "as the sequence (Q9NYV4 715-1052 G731R limits assumed) above, with R17G counted along it", "T5 sequence (O75909 11-267 partner limits assumed)": "as the sequence (O75909 11-267 partner limits assumed) above", "T5 sequence (Q16531 whole entry partner, the tested form may be a part)": "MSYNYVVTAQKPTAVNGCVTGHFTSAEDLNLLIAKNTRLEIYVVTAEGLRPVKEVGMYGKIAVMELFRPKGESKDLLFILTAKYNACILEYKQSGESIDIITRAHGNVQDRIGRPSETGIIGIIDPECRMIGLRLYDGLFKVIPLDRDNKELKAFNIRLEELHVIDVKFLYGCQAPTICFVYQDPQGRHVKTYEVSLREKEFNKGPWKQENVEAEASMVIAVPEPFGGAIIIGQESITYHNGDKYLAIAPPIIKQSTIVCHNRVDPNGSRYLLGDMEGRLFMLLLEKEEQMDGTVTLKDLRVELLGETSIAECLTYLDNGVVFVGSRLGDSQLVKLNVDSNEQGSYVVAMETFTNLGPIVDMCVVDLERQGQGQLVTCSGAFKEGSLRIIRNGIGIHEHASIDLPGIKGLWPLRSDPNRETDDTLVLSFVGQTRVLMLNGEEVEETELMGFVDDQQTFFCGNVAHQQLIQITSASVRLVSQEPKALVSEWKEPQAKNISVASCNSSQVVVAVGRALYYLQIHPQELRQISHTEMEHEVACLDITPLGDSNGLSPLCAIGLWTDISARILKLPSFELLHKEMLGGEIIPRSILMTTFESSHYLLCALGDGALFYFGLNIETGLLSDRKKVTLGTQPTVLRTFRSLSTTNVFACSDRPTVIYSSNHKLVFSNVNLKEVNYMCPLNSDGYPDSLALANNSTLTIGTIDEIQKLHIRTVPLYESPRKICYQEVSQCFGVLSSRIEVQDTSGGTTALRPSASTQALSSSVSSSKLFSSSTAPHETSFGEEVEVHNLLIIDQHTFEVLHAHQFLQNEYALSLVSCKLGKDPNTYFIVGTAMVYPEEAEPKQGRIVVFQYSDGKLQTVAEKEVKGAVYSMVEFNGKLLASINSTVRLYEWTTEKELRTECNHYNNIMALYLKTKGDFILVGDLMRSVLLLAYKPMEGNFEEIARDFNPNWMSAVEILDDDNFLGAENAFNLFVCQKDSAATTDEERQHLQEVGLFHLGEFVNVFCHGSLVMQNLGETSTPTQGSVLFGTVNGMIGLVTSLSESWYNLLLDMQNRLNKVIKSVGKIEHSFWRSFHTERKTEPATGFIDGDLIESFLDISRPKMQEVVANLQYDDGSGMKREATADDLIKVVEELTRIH", "assay": "AlphaScreen assay, WT", "format": "binding", "conditions": "for AlphaScreen: raw signal", "experimental": "as §1"}},
  "note": "pEC50, pIC50: −log10 of the molar value. Several values for one entry are separate records, joined by “and”; a condition that tells them apart may be missing. Identical values can stand only once.",
  "data": [
    {"smiles": "Cc1cccc(Nc2nc(CC(=O)Nc3ncc(C)s3)cs2)n1", "note": "[HQ461, 2-(2-((6-methylpyridin-2-yl)amino)thiazol-4-yl)-N-(5-methylthiazol-2-yl)acetamide]", "values": [
      {"measurement": "pIC50", "setting": "[1]", "result": 5.44},
      {"measurement": "AlphaScreen", "setting": "[2]; HQ461 2.22e-6 M", "result": "1045 and 1023 and 975"},
      {"measurement": "AlphaScreen", "setting": "[2]; HQ461 6.67e-6 M", "result": "1107 and 1087 and 1018"},
      {"measurement": "AlphaScreen", "setting": "[2]; HQ461 2e-5 M", "result": "1057 and 1369 and 1206"},
      {"measurement": "AlphaScreen", "setting": "[2]; HQ461 2.47E-07 M", "result": "1123 and 959 and 996"},
      {"measurement": "AlphaScreen", "setting": "[2]; HQ461 2.74E-08 M", "result": "1124 and 1117 and 796"},
      {"measurement": "AlphaScreen", "setting": "[2]; HQ461 7.41E-07 M", "result": "1008 and 1006 and 1085"},
      {"measurement": "AlphaScreen", "setting": "[2]; HQ461 8.23E-08 M", "result": "1162 and 1262 and 828"},
      {"measurement": "complex formation with DDB1, G731R mutant", "setting": "[2]; even with 20 µM of HQ461", "result": "did not form a complex with DDB1"},
      {"measurement": "thermal stability of DDB1ΔBPB", "setting": "DDB1ΔBPB", "result": "did not change the thermal stability"},
      {"measurement": "AlphaScreen", "setting": "[3]; HQ461 2.22e-6 M", "result": "1248 and 1240 and 1185"},
      {"measurement": "AlphaScreen", "setting": "[3]; HQ461 6.67e-6 M", "result": "1251 and 1198 and 1100"},
      {"measurement": "AlphaScreen", "setting": "[3]; HQ461 2e-5 M", "result": "1233 and 1200 and 1143"},
      {"measurement": "AlphaScreen", "setting": "[3]; HQ461 2.47E-07 M", "result": "1234 and 1107 and 1145"},
      {"measurement": "AlphaScreen", "setting": "[3]; HQ461 2.74E-08 M", "result": "1248 and 1124 and 1169"},
      {"measurement": "AlphaScreen", "setting": "[3]; HQ461 7.41E-07 M", "result": "1137 and 1171 and 1109"},
      {"measurement": "AlphaScreen", "setting": "[3]; HQ461 8.23E-08 M", "result": "1304 and 1157 and 1110"},
      {"measurement": "complex formation with DDB1, G731E mutant", "setting": "[3]; even with 20 µM of HQ461", "result": "did not form a complex with DDB1"},
      {"measurement": "ΔTm at 50 µM", "setting": "CDK12KD/CCNKΔC", "result": 1.4, "unit": "°C"},
      {"measurement": "AlphaScreen", "setting": "[4]; WT + 5 µM THZ531, HQ461 2.22e-6 M", "result": "1078 and 1062 and 921"},
      {"measurement": "AlphaScreen", "setting": "[4]; WT + 5 µM THZ531, HQ461 6.67e-6 M", "result": "1168 and 926 and 865"},
      {"measurement": "AlphaScreen", "setting": "[4]; WT + 5 µM THZ531, HQ461 2e-5 M", "result": "1307 and 1119 and 970"},
      {"measurement": "AlphaScreen", "setting": "[4]; WT + 5 µM THZ531, HQ461 2.47E-07 M", "result": "1065 and 1007 and 926"},
      {"measurement": "AlphaScreen", "setting": "[4]; WT + 5 µM THZ531, HQ461 2.74E-08 M", "result": "1128 and 949 and 821"},
      {"measurement": "AlphaScreen", "setting": "[4]; WT + 5 µM THZ531, HQ461 7.41E-07 M", "result": "1120 and 993 and 799"},
      {"measurement": "AlphaScreen", "setting": "[4]; WT + 5 µM THZ531, HQ461 8.23E-08 M", "result": "1054 and 1033 and 906"},
      {"measurement": "AlphaScreen", "setting": "[4]; WT, HQ461 2.22e-6 M", "result": "11213 and 9188 and 8788"},
      {"measurement": "AlphaScreen", "setting": "[4]; WT, HQ461 6.67e-6 M", "result": "16665 and 12816 and 13014"},
      {"measurement": "AlphaScreen", "setting": "[4]; WT, HQ461 2e-5 M", "result": "20710 and 15836 and 15276"},
      {"measurement": "AlphaScreen", "setting": "[4]; WT, HQ461 2.47E-07 M", "result": "4781 and 3382 and 3265"},
      {"measurement": "AlphaScreen", "setting": "[4]; WT, HQ461 2.74E-08 M", "result": "2625 and 1724 and 1469"},
      {"measurement": "AlphaScreen", "setting": "[4]; WT, HQ461 7.41E-07 M", "result": "7377 and 5649 and 5718"},
      {"measurement": "AlphaScreen", "setting": "[4]; WT, HQ461 8.23E-08 M", "result": "2916 and 2037 and 1777"},
      {"measurement": "pEC50", "setting": "[4]; WT, read-out: apparent EC50 of CDK12KD/CCNKΔC/DDB1 complex formation", "result": 5.72}
    ]}
  ]
}
